ChEMBL document CHEMBL3132761, “Construction of phenoxazine rings containing nitro and sulfonic acid groups leading to phenoxazine-3-sulfonamide derivatives: their evaluation as novel and potential insulin secretagogues” (Medchemcomm, 2014)
The source made the active and inactive calls. The calls are words filed in the database; no cut-off is given here.

Columns and labels:
Rattus norvegicus [1] = assay: Hypoglycemic activity in over night fasted Wistar albino rat assessed as reduction of blood glucose level at 10 mg/kg, po administered 30 mins before glucose challenge measured after 120 mins by intraperitoneal glucose tolerance test (reference value: 101.07 +/- 8.98 mg/dl); assay type: functional
Rattus norvegicus [2] = assay: Hypoglycemic activity in over night fasted Wistar albino rat assessed as reduction of blood glucose level at 10 mg/kg, po administered 30 mins before glucose challenge measured after 90 mins by intraperitoneal glucose tolerance test (reference value: 94.44 +/- 6.99 mg/dl); assay type: functional
Rattus norvegicus [3] = assay: Hypoglycemic activity in over night fasted Wistar albino rat assessed as reduction of blood glucose level at 10 mg/kg, po administered 30 mins before glucose challenge measured after 60 mins by intraperitoneal glucose tolerance test (reference value: 106.07 +/- 13.98 mg/dl); assay type: functional
Rattus norvegicus [4] = assay: Hypoglycemic activity in over night fasted Wistar albino rat assessed as reduction of blood glucose level at 10 mg/kg, po administered 30 mins before glucose challenge measured after 30 mins by intraperitoneal glucose tolerance test (reference value: 109.28 +/- 20.53 mg/dl); assay type: functional
Rattus norvegicus [5] = assay: Hypoglycemic activity in 18 hrs fasted Wistar albino rat assessed as reduction of blood glucose level at 10 mg/kg, po after 6 hrs (reference value: 101.01 +/- 1.60 mg/dl); assay type: functional
Rattus norvegicus [6] = assay: Hypoglycemic activity in 18 hrs fasted Wistar albino rat assessed as reduction of blood glucose level at 10 mg/kg, po after 4 hrs (reference value: 97.13 +/- 2.89 mg/dl); assay type: functional
Rattus norvegicus [7] = assay: Hypoglycemic activity in 18 hrs fasted Wistar albino rat assessed as reduction of blood glucose level at 10 mg/kg, po after 2 hrs (reference value: 101.03 +/- 1.93 mg/dl); assay type: functional
Hepatocyte [8] = assay: Cytotoxicity against rat primary hepatocytes after 16 hrs; assay type: cell-based
Hepatocyte [9] = assay: Cytotoxicity against rat primary hepatocytes after 6 hrs; assay type: cell-based
Rattus norvegicus [10] = assay: Antidiabetic activity in streptozotocin-nicotinamide-induced diabetic model of Wistar albino rat assessed as granulated pancreatic islets with prominent hyperplasticity at 10 mg/kg, po administered for 14 days measured on day 14 relative to control; assay type: functional, organism-based; parameters: dose 10 mg/kg
Rattus norvegicus [11] = assay: Antidiabetic activity in Wistar albino rat assessed as reversal of diabetic-induced muscle wasting by measuring increase in body weight at 10 mg/kg, po administered for 14 days measured on day 14 relative to control; assay type: functional
Rattus norvegicus [12] = assay: Antidiabetic activity in Wistar albino rat assessed as reversal of diabetic-induced SGPT level in liver at 10 mg/kg, po administered for 14 days measured on day 14 relative to control; assay type: functional
Rattus norvegicus [13] = assay: Antidiabetic activity in Wistar albino rat assessed as reversal of diabetic-induced SGOT level in liver at 10 mg/kg, po administered for 14 days measured on day 14 relative to control; assay type: functional
Rattus norvegicus [14] = assay: Hypolipidemic activity in Wistar albino rat assessed as reduction of serum triglyceride level at 10 mg/kg, po administered for 14 days measured on day 14 after 1 to 8 hrs relative to control; assay type: functional
Rattus norvegicus [15] = assay: Hypolipidemic activity in Wistar albino rat assessed as reduction of total cholesterol level at 10 mg/kg, po administered for 14 days measured on day 14 after 1 to 8 hrs relative to control; assay type: functional
Rattus norvegicus [16] = assay: Antidiabetic activity in streptozotocin-nicotinamide-induced diabetic model of Wistar albino rat assessed as reduction of blood glucose level at 10 mg/kg, po administered for 14 days measured on day 14 after 1 to 8 hrs relative to control; assay type: functional
Rattus norvegicus [17] = assay: Antidiabetic activity in streptozotocin-nicotinamide-induced diabetic model of Wistar albino rat assessed as reduction of blood glucose level at 10 mg/kg, po administered for 14 days measured on day 7 after 1 to 8 hrs relative to control; assay type: functional
Rattus norvegicus [18] = assay: Antidiabetic activity in streptozotocin-nicotinamide-induced diabetic model of Wistar albino rat assessed as reduction of blood glucose level at 10 mg/kg, po after 8 hrs relative to control; assay type: functional
Rattus norvegicus [19] = assay: Antidiabetic activity in streptozotocin-nicotinamide-induced diabetic model of Wistar albino rat assessed as reduction of blood glucose level at 10 mg/kg, po after 6 hrs relative to control; assay type: functional
Rattus norvegicus [20] = assay: Antidiabetic activity in streptozotocin-nicotinamide-induced diabetic model of Wistar albino rat assessed as reduction of blood glucose level at 10 mg/kg, po after 4 hrs relative to control; assay type: functional
Rattus norvegicus [21] = assay: Antidiabetic activity in streptozotocin-nicotinamide-induced diabetic model of Wistar albino rat assessed as reduction of blood glucose level at 10 mg/kg, po after 2 hrs relative to control; assay type: functional
Rattus norvegicus [22] = assay: Antidiabetic activity in streptozotocin-nicotinamide-induced diabetic model of Wistar albino rat assessed as reduction of blood glucose level at 10 mg/kg, po after 1 hr relative to control; assay type: functional
[23] = target: T1, Peroxisome proliferator-activated receptor gamma (Homo sapiens) (UniProt P37231); assay: Agonist activity at human GAL4-fused PPARgamma LBD expressed in HEK293T cells co-expressing DBD at 1 uM by luciferase based transactivation assay relative to control; assay type: cell-based; settings: HEK-293T
T1 sequence (whole entry): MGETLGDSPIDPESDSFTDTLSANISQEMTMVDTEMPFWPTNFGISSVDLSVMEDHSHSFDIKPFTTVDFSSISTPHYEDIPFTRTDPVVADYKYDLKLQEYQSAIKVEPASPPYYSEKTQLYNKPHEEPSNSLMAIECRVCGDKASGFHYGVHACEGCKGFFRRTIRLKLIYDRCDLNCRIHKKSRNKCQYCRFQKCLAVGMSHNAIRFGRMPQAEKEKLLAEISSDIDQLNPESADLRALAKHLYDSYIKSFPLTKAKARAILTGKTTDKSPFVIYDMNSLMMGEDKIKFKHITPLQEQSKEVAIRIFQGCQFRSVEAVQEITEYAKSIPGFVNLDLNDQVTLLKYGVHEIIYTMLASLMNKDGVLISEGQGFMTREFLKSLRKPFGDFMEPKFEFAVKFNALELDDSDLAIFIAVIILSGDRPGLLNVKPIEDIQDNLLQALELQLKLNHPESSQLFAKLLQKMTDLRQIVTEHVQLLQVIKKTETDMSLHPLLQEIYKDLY

SMILES | Activity (Rattus norvegicus [1]) [mg/dL] | Activity (Rattus norvegicus [2]) [mg/dL] | Activity (Rattus norvegicus [3]) [mg/dL] | Activity (Rattus norvegicus [4]) [mg/dL] | Activity (Rattus norvegicus [5]) [mg/dL] | Activity (Rattus norvegicus [6]) [mg/dL] | Activity (Rattus norvegicus [7]) [mg/dL] | other results
O=[N+]([O-])c1cc(S(=O)(=O)NCc2ccco2)cc2c1Nc1ccccc1O2 | 83.89 | 80 | 81.89 | 115.43 | 100.76 | 86.36 | 96.21 | –
O=[N+]([O-])c1cc(S(=O)(=O)Nc2cccc(F)c2)cc2c1Nc1ccccc1O2 | – | – | – | – | 93.94 | 87.88 | 95.45 | –
O=[N+]([O-])c1cc(S(=O)(=O)NC2CCCCC2)cc2c1Nc1ccccc1O2 | – | – | – | – | 90.2 | 85.63 | 90.22 | –
CCN(CC)S(=O)(=O)c1cc2c(c([N+](=O)[O-])c1)Nc1ccccc1O2 | – | – | – | – | 118.75 | 113.54 | 122.92 | –
O=[N+]([O-])c1cc(S(=O)(=O)N2CCOCC2)cc2c1Nc1ccccc1O2 | – | – | – | – | 65.27 | 61.56 | 59.35 | –
COc1ccc(NS(=O)(=O)c2cc3c(c([N+](=O)[O-])c2)Nc2ccccc2O3)cc1 | 107.14 | 91.42 | 96.07 | 130.35 | 74.47 | 120.31 | 116.66 | –
O=[N+]([O-])c1cc(S(=O)(=O)N2CCCCC2)cc2c1Nc1ccccc1O2 | – | – | – | – | 78.41 | 69.35 | 72.67 | –
CCCNS(=O)(=O)c1cc2c(c([N+](=O)[O-])c1)Nc1ccccc1O2 | – | – | – | – | 98.7 | 88.7 | 75.48 | –
Cc1ccc(NS(=O)(=O)c2cc3c(c([N+](=O)[O-])c2)Nc2ccccc2O3)c(C)c1 | – | – | – | – | 85.42 | 89.88 | 93.55 | –
O=[N+]([O-])c1cc(S(=O)(=O)Nc2ccccc2O)cc2c1Nc1ccccc1O2 | – | – | – | – | 88.88 | 85 | 71.38 | –
O=[N+]([O-])c1cc(S(=O)(=O)Nc2ccc(Cl)cc2)cc2c1Nc1ccccc1O2 | 76.9 | 93.77 | 106.23 | 100.36 | 60.93 | 91.66 | 106.25 | –
CN(CCOc1ccc(CC2SC(=O)NC2=O)cc1)c1ccccn1 (stereo not drawn) [ROSIGLITAZONE] | – | – | – | – | – | – | – | IC50 (Hepatocyte [8]): 165 µM; IC50 (Hepatocyte [9]): 225 µM
COc1ccc(Cl)cc1C(=O)NCCc1ccc(S(=O)(=O)NC(=O)NC2CCCCC2)cc1 [GLYBURIDE] | 91.78 | 77.5 | 89 | 107.85 | 69.01 | 63.73 | 90.2 | Activity (Rattus norvegicus [10]): Active; Activity (Rattus norvegicus [11]): 244 g; Activity (Rattus norvegicus [12]): 42 U/dl; Activity (Rattus norvegicus [13]): 45.8 U/dl; Activity (Rattus norvegicus [14]): 61 mg/dL; Activity (Rattus norvegicus [15]): 57.8 mg/dL; Activity (Rattus norvegicus [16]): 88.3 mg/dL; Activity (Rattus norvegicus [17]): 93.3 mg/dL; Activity (Rattus norvegicus [18]): 151.9 mg/dL; Activity (Rattus norvegicus [19]): 127.2 mg/dL; Activity (Rattus norvegicus [20]): 107.5 mg/dL; Activity (Rattus norvegicus [21]): 101.9 mg/dL; Activity (Rattus norvegicus [22]): 147.2 mg/dL
CC(C)c1ccc(NS(=O)(=O)c2cc3c(c([N+](=O)[O-])c2)Nc2ccccc2O3)cc1 | 106 | 98 | 96.66 | 124.33 | 91.74 | 86.45 | 74.28 | –
O=[N+]([O-])c1cc(S(=O)(=O)Nc2ccccc2)cc2c1Nc1ccccc1O2 | – | – | – | – | 118.22 | 100 | 102.6 | –
O=[N+]([O-])c1cc(S(=O)(=O)Nc2ccc(Br)cc2)cc2c1Nc1ccccc1O2 | 119.64 | 137.5 | 111.4 | 148.35 | 89.58 | 85.42 | 95.31 | Activity (Rattus norvegicus [18]): 172.2 mg/dL; Activity (Rattus norvegicus [19]): 165.6 mg/dL; Activity (Rattus norvegicus [20]): 157.5 mg/dL; Activity (Rattus norvegicus [21]): 145.6 mg/dL; Activity (Rattus norvegicus [22]): 165.8 mg/dL
O=[N+]([O-])c1cc(S(=O)(=O)Nc2ccc(O)cc2)cc2c1Nc1ccccc1O2 | 98.91 | 78.1 | 95.4 | 102.43 | 66.14 | 44.65 | 46.34 | IC50 (Hepatocyte [8]): 274 µM; IC50 (Hepatocyte [9]): 343 µM; fold change (FC) [23]: 15.5; Activity (Rattus norvegicus [10]): Active; Activity (Rattus norvegicus [11]): 242 g; Activity (Rattus norvegicus [12]): 44.8 U/dl; Activity (Rattus norvegicus [13]): 47.2 U/dl; Activity (Rattus norvegicus [14]): 63.2 mg/dL; Activity (Rattus norvegicus [15]): 59.2 mg/dL; Activity (Rattus norvegicus [16]): 145.6 mg/dL; Activity (Rattus norvegicus [17]): 165.8 mg/dL; Activity (Rattus norvegicus [18]): 161.4 mg/dL; Activity (Rattus norvegicus [19]): 143.3 mg/dL; Activity (Rattus norvegicus [20]): 131.4 mg/dL; Activity (Rattus norvegicus [21]): 116.4 mg/dL; Activity (Rattus norvegicus [22]): 158.6 mg/dL
O=[N+]([O-])c1cc(S(=O)(=O)NCc2cccs2)cc2c1Nc1ccccc1O2 | – | – | – | – | 84.37 | 114.06 | 86.45 | –
CC(C)N(C(C)C)S(=O)(=O)c1cc2c(c([N+](=O)[O-])c1)Nc1ccccc1O2 | – | – | – | – | 69.44 | 63.05 | 67.5 | –
CC(NS(=O)(=O)c1cc2c(c([N+](=O)[O-])c1)Nc1ccccc1O2)c1ccccc1 (stereo not drawn) | – | – | – | – | 94.28 | 77.74 | 78.26 | –
NS(=O)(=O)c1cc2c(c([N+](=O)[O-])c1)Nc1ccccc1O2 | 122.85 | 105.72 | 112.31 | 124.2 | 51.04 | 69.79 | 65.62 | –
COc1ccc(CNS(=O)(=O)c2cc3c(c([N+](=O)[O-])c2)Nc2ccccc2O3)cc1 | – | – | – | – | 85.93 | 102.08 | 102.6 | –
Cc1ccccc1NS(=O)(=O)c1cc2c(c([N+](=O)[O-])c1)Nc1ccccc1O2 | 100 | 97.32 | 100.44 | 123.21 | 87.93 | 73.33 | 52.43 | –
